Measurements published in patent publication US8471005B2 (Cephalon, Inc., priority 2008, dated 2013).
Where two headings read alike, the source gives them in different places.

Experiments:
JAK2 = biological target: T1, JAK2 (Homo sapiens, UniProt O60674); test: Recombinant Human JAK2 Kinase Assay (TRF); assay type: biochemical; details: read-out: JAK2 Potency
T1 construct: host or cells: baculovirus expression system
Procedure, shortened: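 Europium-labelled PY100 antibody reported tyrosine phosphorylation of a Neutravidin-captured biotinyl 15-mer peptide by JAK2 (baculovirus-expressed, 15 ng/ml). Conditions: 20 mM HEPES pH 7.2, 0.2 μM ATP, 1 mM MnCl2, 0.1% BSA, DMSO 2.5% final, 20 min at room temperature.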

ALK = biological target: T2, ALK (Homo sapiens, UniProt Q9UM73); test: ALK Kinase Assay (ELISA/TRF, PLC-γ substrate); assay type: biochemical; details: read-out: ALK Potency
T2 construct: host or cells: baculovirus expression system
T2 sequence (Q9UM73 19-1620): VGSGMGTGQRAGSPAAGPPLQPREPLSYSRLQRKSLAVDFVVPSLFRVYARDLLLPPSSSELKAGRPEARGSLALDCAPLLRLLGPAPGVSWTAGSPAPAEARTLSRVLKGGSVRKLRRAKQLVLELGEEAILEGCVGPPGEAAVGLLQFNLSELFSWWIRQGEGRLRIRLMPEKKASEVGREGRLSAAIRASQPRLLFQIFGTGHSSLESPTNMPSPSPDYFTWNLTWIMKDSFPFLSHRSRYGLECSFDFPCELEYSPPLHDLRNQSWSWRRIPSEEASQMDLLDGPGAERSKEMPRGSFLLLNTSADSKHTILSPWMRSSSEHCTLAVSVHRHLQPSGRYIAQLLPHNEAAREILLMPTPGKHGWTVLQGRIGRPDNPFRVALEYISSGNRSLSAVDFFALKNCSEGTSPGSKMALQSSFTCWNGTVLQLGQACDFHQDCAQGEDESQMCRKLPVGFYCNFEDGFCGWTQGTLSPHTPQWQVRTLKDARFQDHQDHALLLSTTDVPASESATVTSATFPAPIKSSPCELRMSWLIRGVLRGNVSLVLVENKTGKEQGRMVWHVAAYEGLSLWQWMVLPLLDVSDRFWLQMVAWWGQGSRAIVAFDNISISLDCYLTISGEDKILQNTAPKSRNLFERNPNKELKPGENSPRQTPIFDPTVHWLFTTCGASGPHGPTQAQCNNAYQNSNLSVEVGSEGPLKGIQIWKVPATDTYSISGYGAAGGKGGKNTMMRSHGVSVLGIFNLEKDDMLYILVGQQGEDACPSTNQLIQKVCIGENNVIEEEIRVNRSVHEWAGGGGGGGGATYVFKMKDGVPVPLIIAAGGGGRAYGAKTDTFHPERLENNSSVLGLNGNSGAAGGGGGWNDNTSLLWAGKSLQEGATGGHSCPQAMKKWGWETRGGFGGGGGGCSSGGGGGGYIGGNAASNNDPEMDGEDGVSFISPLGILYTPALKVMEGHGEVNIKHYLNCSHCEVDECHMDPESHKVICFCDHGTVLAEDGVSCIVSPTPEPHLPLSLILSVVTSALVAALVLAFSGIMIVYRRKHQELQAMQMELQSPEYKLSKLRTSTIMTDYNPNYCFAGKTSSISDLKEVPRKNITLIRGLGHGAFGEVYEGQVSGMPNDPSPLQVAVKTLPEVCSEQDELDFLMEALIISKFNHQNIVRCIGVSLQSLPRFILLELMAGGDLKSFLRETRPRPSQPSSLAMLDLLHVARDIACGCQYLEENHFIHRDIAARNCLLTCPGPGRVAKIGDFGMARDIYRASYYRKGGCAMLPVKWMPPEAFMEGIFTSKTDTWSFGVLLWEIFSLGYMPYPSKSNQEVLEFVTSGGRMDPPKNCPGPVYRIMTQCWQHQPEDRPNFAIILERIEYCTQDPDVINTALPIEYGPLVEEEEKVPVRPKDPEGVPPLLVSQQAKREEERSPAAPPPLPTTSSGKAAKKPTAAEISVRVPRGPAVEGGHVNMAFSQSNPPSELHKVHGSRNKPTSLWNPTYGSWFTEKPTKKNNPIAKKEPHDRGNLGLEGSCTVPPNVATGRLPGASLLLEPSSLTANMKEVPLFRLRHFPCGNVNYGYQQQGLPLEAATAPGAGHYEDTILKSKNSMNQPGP
Procedure, shortened: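 PLC-γ coat 10 μg/mL in TBS; ALK 30 ng/ml added to start; 37° C, 15 min; Eu-N1 PT66 antibody detection (TRF). IC50: % inhibition vs log10 [cpd], variable-slope sigmoidal fit.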

[1] = JAK2 kinase inhibition, 0.2 μM ATP
[2] = ALK kinase inhibition, 1 μM ATP

T1 sequence (O60674 whole entry): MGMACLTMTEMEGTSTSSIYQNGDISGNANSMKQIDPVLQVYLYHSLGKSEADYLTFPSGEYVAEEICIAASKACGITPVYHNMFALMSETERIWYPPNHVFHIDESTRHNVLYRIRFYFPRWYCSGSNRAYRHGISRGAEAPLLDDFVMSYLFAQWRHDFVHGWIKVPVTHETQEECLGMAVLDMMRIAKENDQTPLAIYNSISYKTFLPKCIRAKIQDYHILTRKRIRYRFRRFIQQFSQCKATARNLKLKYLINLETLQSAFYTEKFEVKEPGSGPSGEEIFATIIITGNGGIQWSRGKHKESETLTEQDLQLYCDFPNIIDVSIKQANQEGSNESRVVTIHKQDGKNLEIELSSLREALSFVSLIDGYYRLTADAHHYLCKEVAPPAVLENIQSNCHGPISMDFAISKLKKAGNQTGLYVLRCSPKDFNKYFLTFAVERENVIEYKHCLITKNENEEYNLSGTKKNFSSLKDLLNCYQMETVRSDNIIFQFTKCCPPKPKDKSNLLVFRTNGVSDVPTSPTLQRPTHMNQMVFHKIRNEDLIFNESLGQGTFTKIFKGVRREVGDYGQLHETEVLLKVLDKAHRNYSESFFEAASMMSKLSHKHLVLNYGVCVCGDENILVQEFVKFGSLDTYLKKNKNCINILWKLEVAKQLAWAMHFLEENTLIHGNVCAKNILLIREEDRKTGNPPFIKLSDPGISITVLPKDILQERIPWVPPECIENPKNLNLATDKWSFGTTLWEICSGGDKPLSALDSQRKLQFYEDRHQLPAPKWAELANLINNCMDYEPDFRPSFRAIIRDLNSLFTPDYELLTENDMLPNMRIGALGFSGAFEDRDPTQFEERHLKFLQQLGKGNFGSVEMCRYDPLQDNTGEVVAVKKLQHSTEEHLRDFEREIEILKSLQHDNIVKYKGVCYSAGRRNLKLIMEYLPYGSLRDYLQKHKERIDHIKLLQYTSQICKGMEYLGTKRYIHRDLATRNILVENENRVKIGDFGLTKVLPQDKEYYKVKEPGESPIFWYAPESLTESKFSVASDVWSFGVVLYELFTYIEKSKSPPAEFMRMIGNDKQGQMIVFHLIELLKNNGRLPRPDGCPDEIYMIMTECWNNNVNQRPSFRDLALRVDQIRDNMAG

Row | SMILES | IC50 (JAK2; [1]) [nM] | IC50 (ALK; [2]) [nM] | IC50 (JAK2; JAK2 Kinase Inhibition) [nM] | IC50 (ALK; ALK Kinase Inhibition) [nM]
1 | COc1ccccc1-c1ccc2cnc(Nc3ccc(C4CCN(C(=O)OC(C)(C)C)C4)cc3)nn12 (stereo not drawn) [Example 1008, 3-{4-[7-(2-Methoxy-phenyl)-pyrrolo[2,1-f][1,2,4]triazin-2-ylamino]-phenyl}-pyrrolidine-1-carboxylic acid tert-butyl ester] | < 100 | 100 to 1000 |  | 
2 | CC(C)CCn1cc(-c2ccc3cnc(Nc4cccc(N5CCN(C)CC5)c4)nn23)cn1 [Example 971, {7-[1-(3-Methyl-butyl)-1H-pyrazol-4-yl]-pyrrolo[2,1-f][1,2,4]triazin-2-yl}-[3-(4-methyl-piperazin-1-yl)-phenyl]-amine] | < 100 | 1000 to 10000 |  | 
3 | CN1CCN(c2ccc(Nc3ncc4c(-c5ccccc5)ccn4n3)cc2)CC1 [Example 41, [4-(4-Methyl-piperazin-1-yl)-phenyl]-(5-phenyl-pyrrolo[2,1-f][1,2,4]triazin-2-yl)-amine] |  |  | < 100 | > 10000
4 | CS(=O)(=O)c1cccc(-c2ccc3cnc(Nc4ccc(C5CN(CC(N)=O)C5)cc4)nn23)c1 [Example 578, 2-(3-{4-[7-(3-Methanesulfonyl-phenyl)-pyrrolo[2,1-f][1,2,4]triazin-2-ylamino]-phenyl}-azetidin-1-yl)-acetamide] | < 100 | 100 to 1000 |  | 
5 | CC(C)(C)NS(=O)(=O)c1cccc(-c2ccc3cnc(Nc4ccc5c(c4)NC(=O)C(C)(C)O5)nn23)c1 [Example 1376, N-tert-Butyl-3-[2-(2,2-dimethyl-3-oxo-3,4-dihydro-2H-1,4-benzoxazin-6-ylamino)-pyrrolo[2,1-f][1,2,4]triazin-7-yl]-benzenesulfonamide] |  |  | < 100 | 1000 to 10000
6 | COc1cc(C2CCN(CC(N)=O)CC2)ccc1Nc1ncc2ccc(-c3ccncc3OC)n2n1 [Example 857, 2-(4-{3-Methoxy-4-[7-(3-methoxy-pyridin-4-yl)-pyrrolo[2,1-f][1,2,4]triazin-2-ylamino]-phenyl}-piperidin-1-yl)-acetamide] | 100 to 1000 | < 100 |  | 
7 | COc1cc(N2CCN(C[C@@H](O)CO)CC2)ccc1Nc1ncc2ccc(-c3cc(Cl)ccc3OC)n2n1 [Example 757, (R)-3-(4-{4-[7-(5-Chloro-2-methoxy-phenyl)-pyrrolo[2,1-f][1,2,4]triazin-2-ylamino]-3-methoxy-phenyl}-piperazin-1-yl)-propane-1,2-diol] | 100 to 1000 | < 100 |  | 

Other lines, results leading:

Row | IC50 (JAK2; [1]) [nM] | IC50 (ALK; [2]) [nM] | IC50 (JAK2; JAK2 Kinase Inhibition) [nM] | IC50 (ALK; ALK Kinase Inhibition) [nM] | SMILES
8 | < 100 | 100 to 1000 |  |  | CN(c1ccccc1-c1ccc2cnc(Nc3ccc4cnn(C)c4c3)nn12)S(C)(=O)=O [Example 1340, N-Methyl-N-{2-[2-(1-methyl-1H-indazol-6-ylamino)-pyrrolo[2,1-f][1,2,4]triazin-7-yl]-phenyl}-methanesulfonamide]
9 | 100 to 1000 | < 100 |  |  | COc1cc([C@@H]2CCN(CCO)C[C@@H]2O)ccc1Nc1ncc2ccc(-c3ccccc3N(C)S(C)(=O)=O)n2n1 (racemic) [Example 847, (±)-N-[2-(2-{4-[(3R,4S)-3-Hydroxy-1-(2-hydroxy-ethyl)-piperidin-4-yl]-2-methoxy-phenylamino}-pyrrolo[2,1-f][1,2,4]triazin-7-yl)-phenyl]-N-methyl-methanesulfonamide]
10 | < 100 | 1000 to 10000 |  |  | COc1ccccc1-c1ccc2cnc(Nc3ccc4cnn(CCN5CCOCC5)c4c3)nn12 [Example 1347, [7-(2-Methoxy-phenyl)-pyrrolo[2,1-f][1,2,4]triazin-2-yl]-[1-(2-morpholin-4-yl-ethyl)-1H-indazol-6-yl]-amine]
11 | < 100 | 1000 to 10000 |  |  | Cc1nc2cc(Nc3ncc4ccc(-c5cccc(S(=O)(=O)NC(C)(C)C)c5)n4n3)ccc2o1 [Example 600, N-tert-Butyl-3-[2-(2-methyl-benzoxazol-5-ylamino)-pyrrolo[2,1-f][1,2,4]triazin-7-yl]-benzenesulfonamide]
12 |  |  | < 100 | < 100 | COc1ccccc1-c1ccc2cnc(Nc3ccc(CN4CCCC4)cc3)nn12 [Example 1430, [7-(2-Methoxy-phenyl)-pyrrolo[2,1-f][1,2,4]triazin-2-yl]-(4-pyrrolidin-1-ylmethyl-phenyl)-amine]
